Experimental data as given in US4727080A, “1-substituted derivatives of 6-fluoro-7-(pyrrol-1-yl)-1,4-dihydro-4-oxoquinoline-3-carboxylic acid, their preparation and their application as drugs” (Provesan S.A., priority 1984, dated 1988).
≈ marks a conversion by molar mass, not a printed value.

Assays:
[1] = test system: Enterobacter aerogenes ATCC 15038; assay: "In vitro" MIC, Enterobacter aerogenes; assay type: cell-based; settings: Klebsiella aerogenes, ATCC15038; Enterobacter aerogenes ATCC 15038; dextrose agar, 37° C., 20 hours; read-out: "In vitro" MIC
Description: (§1) Antimicrobial pharmacological activity (G. L. Daquet and Y. A. Chabbect, Techniques en bacteriologie (Techniques in bacteriology), vol. 3, Flammarion Medecine-Sciences, Paris, 1972, and W. B. Hugo and A. D. Rusell, Pharmaceutical Microbiology, Blackwell Scientific Publications, London (1977).
Enterobacter aerogenes ATCC 15038
(§2) A streak culture of each of the microorganisms is formed in tubes of antibiotics agar no. 1 and incubated for 20 hours at 37° C. A culture loop is then taken and a culture is formed in a tryptone-soya broth and incubated for 20 hours at 37° C. The resulting culture is diluted to 1/4 with Ringer's physiological solution to give a standardized suspension of 10^5 ufc/ml for each organism.
(§3) Starting from a solution of 1000 μg/ml in 0.1N NaOH, each product is diluted successively in dextrose agar (melted beforehand and kept at 50° C.) to give the following concentrations: 64-32-16-8-4-2-1-0.5-0.25-0.125 μg of derivative/ml of medium.
(§4) After this, each concentration of each product is divided up into Petri dishes of 10 cm diameter at a rate of 10 ml of medium per dish and using as many dishes as there are microorganisms to be tested.
(§5) Once the medium has cooled, the dishes are treated with the inoculations at a rate of 0.4 ml of inoculation per dish. They are spread out with a Drigalski loop and the supernatant is collected. The inoculated dishes are incubated at 37° C. for 20 hours.

[2] = test system: Streptococcus faecalis ATCC 10541; assay: "In vitro" MIC, Streptococcus faecalis; assay type: cell-based; settings: Enterococcus faecalis, ATCC10541; Streptococcus faecalis ATCC 10541; dextrose agar, 37° C., 20 hours; read-out: "In vitro" MIC
Description: as §1
Streptococcus faecalis ATCC 10541
as §2, §3, §4, §5

[3] = test system: Salmonella typhimurium AMES 100; assay: "In vitro" MIC, Salmonella typhimurium AMES 100; assay type: cell-based; settings: Salmonella enterica; Salmonella typhimurium AMES 100; dextrose agar, 37° C., 20 hours; read-out: "In vitro" MIC
Description: as §1
Salmonella typhimurium AMES 100
as §2, §3, §4, §5

[4] = test system: Bacillus subtilis ATCC 6633; assay: "In vitro" MIC, Bacillus subtilis; assay type: cell-based; settings: ATCC6633; Bacillus subtilis ATCC 6633; dextrose agar, 37° C., 20 hours; read-out: "In vitro" MIC
Description: as §1
Bacillus subtilis ATCC 6633
as §2, §3, §4, §5

[5] = test system: Salmonella typhimurium AMES 98; assay: "In vitro" MIC, Salmonella typhimurium AMES 98; assay type: cell-based; settings: Salmonella enterica; Salmonella typhimurium AMES 98; dextrose agar, 37° C., 20 hours; read-out: "In vitro" MIC
Description: as §1
Salmonella typhimurium AMES 98
as §2, §3, §4, §5

[6] = test system: Proteus mirabilis ATCC 4675; assay: "In vitro" MIC, Proteus mirabilis; assay type: cell-based; settings: ATCC4675; Proteus mirabilis ATCC 4675; dextrose agar, 37° C., 20 hours; read-out: "In vitro" MIC
Description: as §1
Proteus mirabilis ATCC 4675
as §2, §3, §4, §5

[7] = test system: Serratia marcescens ATTC 13880; assay: "In vitro" MIC, Serratia marcescens; assay type: cell-based; settings: ATTC13880; Serratia marcescens ATTC 13880; dextrose agar, 37° C., 20 hours; read-out: "In vitro" MIC
Description: as §1
Serratia marcescens ATTC 13880
as §2, §3, §4, §5

[8] = test system: Escherichia coli ATCC 10536; assay: "In vitro" MIC, Escherichia coli ATCC 10536; assay type: cell-based; settings: ATCC10536; Escherichia coli ATCC 10536; dextrose agar, 37° C., 20 hours; read-out: "In vitro" MIC
Description: as §1
Escherichia coli ATCC 10536
as §2, §3, §4, §5

Shigella flexnerii = assay: "In vitro" MIC, Shigella flexnerii; assay type: cell-based; settings: 20 h, read-out: "In vitro" MIC
Description: as §1, §2, §3, §4, §5

Gram-positive cocci = assay: "In vitro" antimicrobial activity compared with nalidixic acid, Gram-positive cocci; assay type: cell-based
Description: as §1, §2, §3, §4, §5

[9] = test system: Micrococcus flavus ATCC 10240; assay: "In vitro" MIC, Micrococcus flavus; assay type: cell-based; settings: ATCC10240; Micrococcus flavus ATCC 10240; dextrose agar, 37° C., 20 hours; read-out: "In vitro" MIC
Description: as §1
Micrococcus flavus ATTC 10240
as §2, §3, §4, §5

Sarcina lutea ATCC 9341 = assay: "In vitro" MIC, Sarcina lutea; assay type: cell-based; settings: Micrococcus luteus, ATCC9341; Sarcina lutea ATCC 9341; dextrose agar, 37° C., 20 hours; read-out: "In vitro" MIC
Description: as §1, §2, §3, §4, §5

Proteus morganii CHSP-16 = assay: "In vitro" MIC, Proteus morganii; assay type: cell-based; settings: Morganella morganii, CHSP16; Proteus morganii CHSP-16; dextrose agar, 37° C., 20 hours; read-out: "In vitro" MIC
Description: as §1, §2, §3, §4, §5

[10] = test system: Staphylococcus aureus ATCC 5488/23; assay: "In vitro" MIC, Staphylococcus aureus ATCC 5488/23; assay type: cell-based; settings: ATCC5488; Staphylococcus aureus ATCC 5488/23; dextrose agar, 37° C., 20 hours; read-out: "In vitro" MIC
Description: as §1
Staphylococcus aureus ATCC 5488/23
as §2, §3, §4, §5

[11] = test system: Klebsiella pneumoniae ATCC 10031; assay: "In vitro" MIC, Klebsiella pneumoniae; assay type: cell-based; settings: ATCC10031; Klebsiella pneumoniae ATCC 10031; dextrose agar, 37° C., 20 hours; read-out: "In vitro" MIC
Description: as §1
Klebsiella pneumoniae ATCC 10031
as §2, §3, §4, §5

Acute toxicity to mice = settings: mouse, in vivo, ip, suspension in 5% gum arabic, mortality over 7 days
Description: The experimental animals used to determine this toxicity were albino mice of the C.F.L.P. strain and of both sexes, weighing between 19 and 25 grams. After an 18-hour fasting period with water "ad libitum", the derivatives forming the subject of the present invention are administered intraperitoneally as a suspension in 5% gum arabic. The volume of suspension administered was 0.4 ml/20 grams (20 ml/kg) in all cases, the concentration of the suspension being changed according to the dose administered.
One hour after administration of the derivatives, the animals are given a standard Panlab rat-mouse food. The mortality was observed over a period of 7 days. Differences in mortality between the sexes were not observed with any of the products.

[12] = test system: Pseudomonas aeruginosa 25115; assay: "In vitro" MIC, Pseudomonas aeruginosa 25115; assay type: cell-based; settings: Pseudomonas aeruginosa 25115; dextrose agar, 37° C., 20 hours; read-out: "In vitro" MIC
Description: as §1
Pseudomonas aeruginosa 25115
as §2, §3, §4, §5

[13] = test system: Gram-negative microorganisms; assay: "In vitro" antimicrobial activity compared with nalidixic acid, Gram-negative microorganisms; assay type: cell-based
Description: as §1, §2, §3, §4, §5

[14] = test system: Citrobacter freundii ATCC 11606; assay: "In vitro" MIC, Citrobacter freundii; assay type: cell-based; settings: ATCC11606; Citrobacter freundii ATCC 11606; dextrose agar, 37° C., 20 hours; read-out: "In vitro" MIC
Description: as §1
Citrobacter freundii ATCC 11606
as §2, §3, §4, §5

Escherichia coli R-1513 = assay: "In vitro" MIC, Escherichia coli R-1513; assay type: cell-based; settings: R1513; Escherichia coli R-1513; dextrose agar, 37° C., 20 hours; read-out: "In vitro" MIC
Description: as §1, §2, §3, §4, §5

[15] = test system: Pseudomonas aeruginosa ADSA 47; assay: "In vitro" MIC, Pseudomonas aeruginosa ADSA 47; assay type: cell-based; settings: ADSA47; Pseudomonas aeruginosa ADSA 47; dextrose agar, 37° C., 20 hours; read-out: "In vitro" MIC
Description: as §1
Pseudomonas aeruginosa ADSA 47
as §2, §3, §4, §5

[16] = test system: Enterobacter cloacae CHSP-20; assay: "In vitro" MIC, Enterobacter cloacae; assay type: cell-based; settings: CHSP20; Enterobacter cloacae CHSP-20; dextrose agar, 37° C., 20 hours; read-out: "In vitro" MIC
Description: as §1
Enterobacter cloacae CHSP-20
as §2, §3, §4, §5

[17] = test system: Staphylococcus aureus ATCC 25178; assay: "In vitro" MIC, Staphylococcus aureus ATCC 25178; assay type: cell-based; settings: ATCC25178; Staphylococcus aureus ATCC 25178; dextrose agar, 37° C., 20 hours; read-out: "In vitro" MIC
Description: as §1
Staphylococcus aureus ATCC 25178
as §2, §3, §4, §5

SMILES	MIC [1]	MIC [2]	MIC [3]	MIC [4]	MIC [5]	MIC [6]	MIC [7]	MIC [8]	MIC (Shigella flexnerii)	"in vitro" activity compared with nalidixic acid (Gram-positive cocci)	MIC [9]	MIC (Sarcina lutea ATCC 9341)	MIC (Proteus morganii CHSP-16)	MIC [10]	MIC [11]	LD50 at 168 h (Acute toxicity to mice)	MIC [12]	activity compared with nalidixic acid [13]	MIC [14]	MIC (Escherichia coli R-1513)	further results
CCCn1cc(C(=O)O)c(=O)c2cc(F)c(-n3cccc3)cc21 [Example 5, 6-fluoro-7-(pyrrol-1-yl)-1-propyl-4-oxo-1,4-dihydroquinoline-3-carboxylic acid]	8 µg/mL (≈ 25.5 µM)	8 µg/mL (≈ 25.5 µM)	1 µg/mL (≈ 3.18 µM)	0.125 µg/mL (≈ 0.398 µM)	1 µg/mL (≈ 3.18 µM)	16 µg/mL (≈ 50.9 µM)	1 µg/mL (≈ 3.18 µM)	0.5 µg/mL (≈ 1.59 µM)	4 µg/mL (≈ 12.7 µM)	greater activity towards Gram-positive cocci	8 µg/mL (≈ 25.5 µM)	8 µg/mL (≈ 25.5 µM)	8 µg/mL (≈ 25.5 µM)	0.5 µg/mL (≈ 1.59 µM)	0.5 µg/mL (≈ 1.59 µM)	> 1600 mg/kg	32 µg/mL (≈ 102 µM)	activity of the same order as nalidixic acid	8 µg/mL (≈ 25.5 µM)	8 µg/mL (≈ 25.5 µM)	MIC [15]: 32 µg/mL (≈ 102 µM); MIC [16]: 4 µg/mL (≈ 12.7 µM); MIC [17]: 0.5 µg/mL (≈ 1.59 µM)
O=C(O)c1cn(CC2CC2)c2cc(-n3cccc3)c(F)cc2c1=O [Example 4, 6-fluoro-7-(pyrrol-1-yl)-1-cyclopropylmethyl-4-oxo-1,4-dihydroquinoline-3-carboxylic acid]	8 µg/mL (≈ 24.5 µM)	16 µg/mL (≈ 49 µM)	2 µg/mL (≈ 6.13 µM)	0.125 µg/mL (≈ 0.383 µM)	0.25 µg/mL (≈ 0.766 µM)	32 µg/mL (≈ 98.1 µM)	4 µg/mL (≈ 12.3 µM)	0.25 µg/mL (≈ 0.766 µM)	4 µg/mL (≈ 12.3 µM)	greater activity towards Gram-positive cocci	1 µg/mL (≈ 3.06 µM)	8 µg/mL (≈ 24.5 µM)	8 µg/mL (≈ 24.5 µM)	2 µg/mL (≈ 6.13 µM)	1 µg/mL (≈ 3.06 µM)	> 1600 mg/kg	≥ 32 µg/mL	activity of the same order as nalidixic acid	16 µg/mL (≈ 49 µM)	8 µg/mL (≈ 24.5 µM)	MIC [15]: ≥ 32 µg/mL; MIC [16]: 4 µg/mL (≈ 12.3 µM); MIC [17]: 1 µg/mL (≈ 3.06 µM)
